{"source": "patent US20230190761A1", "about": "“METHYLENE BLUE STABILIZED MRNA COMPOSITIONS” (ModernaTX, Inc., priority 2020, published 2023)", "key": {"[1]": {"system": "mRNA within LNP formulations", "assay": "Screen of molecular dyes on mRNA stability within LNP formulations (RP-HPLC)", "assay_type": "physicochemical", "method": "This example discusses the effects of various dye molecules on mRNA stability within LNP formulations. To evaluate the potential stabilization effects of dyes, LNP compositions were prepared containing 2 mM of one of 25 dyes. After incubation for 4 days at 40° C., main peak mRNA purity was measured by RP-HPLC. Variance within this study was estimated from three independent sample replicates with no dye (Sample IDs D0a, D0b and D0c as shown in Table 4) or with 2 mM methylene blue (Sample IDs D1a, D1b and D1c as shown in Table 4). […] The main peak purity measured in each mRNA-LNP formulation, as well as its difference relative to the no dye controls is shown in Table 4. Positive differences relative to no dye represent improvements in mRNA stability, and negative differences represent worsened mRNA stability."}, "mRNA [2]": {"system": "mRNA", "assay": "Differential scanning calorimetry of mRNA with methylene blue", "assay_type": "physicochemical", "method": "To test the effect of methylene blue on folding and intramolecular hybridization of mRNA, differential scanning calorimetry (DSC) was conducted on samples of mRNA containing no methylene blue, 50 μM methylene blue, or 100 μM methylene blue. […] At higher methylene blue concentrations (approximately 0.5 mM), precipitation of mRNA occurs, but at the concentrations of this experiment the mRNA-dye complex remains soluble. It is notable that the sharp transitions at ˜74° C. and 80° C. are not affected by the presence of dye, whereas there is a massive effect on the least thermally stable transitions occurring in the <60° C. region, shown by the large rightward shift of the curves with the addition of methylene blue. By comparison, therapeutic protein stabilization strategies commonly involve screening of excipient effects on thermal unfolding, however, the thermal shifts observed for optimized protein formulations typically involve thermal shifts of only a few degrees.\nThe DSC thermogram show the effects on the thermal unfolding profile of mRNA in the presence or absence of […] methylene blue. When the methylene blue-containing sample was dialyzed to remove dye, the resulting thermogram corresponded closely to that of the original no-dye sample. […] All the fine details of the thermal unfolding profile were restored post-dialysis, indicating a restoration of the original structure-function of the mRNA."}, "mRNA [3]": {"system": "mRNA", "assay": "Circular dichroism of mRNA with methylene blue", "assay_type": "physicochemical", "conditions": "addition of methylene blue (210 μM, 367 μM)", "text": "The effect of methylene blue on the conformational state of mRNA is also apparent from the circular dichroism (CD) spectra shown in FIG. 20. The CD bands correspond to the intrinsic CD of the mRNA itself. […] The stabilizing effect of methylene blue observed on mRNA may be attributed to this binding and conformational stabilization evident from the DSC thermograms (FIGS. 18 and 19)."}, "[4]": {"system": "mRNA within LNP compositions", "assay": "mRNA integrity by fragmentation analysis after 10 days at 5, 25 or 40° C. with methylene blue", "assay_type": "physicochemical", "conditions": "for mRNA stability by fragmentation analysis: 0.1-6 mM methylene blue", "text": "(§1) mRNA purity can be determined by reverse phase high-performance liquid chromatography (RP-HPLC) size based separation. This method can be used to assess mRNA integrity by a length-based gradient RP separation and UV detection of RNA at 260 nm. As used herein “main peak” or “main peak purity” refers to the RP-HPLC signal detected from mRNA that corresponds to the full size mRNA molecule loaded within a given LNP formulation. mRNA purity can also be assessed by fragmentation analysis. Fragmentation analysis (FA) is a method by which nucleic acid (e.g., mRNA) fragments can be analyzed by capillary electrophoresis. Fragmentation analysis involves sizing and quantifying nucleic acids (e.g., mRNA), for example by using an intercalating dye coupled with an LED light source. Such analysis may be completed, for example, with a Fragment Analyzer from Advanced Analytical Technologies, Inc.\nIn view of the surprising and somewhat counter-intuitive finding that methylene blue enhanced stability of mRNA-LNP formulations, additional experimentation was conducted. The stability of mRNA-LNPs in the presence of increasing levels of methylene blue was investigated upon incubation at 5° C., 25° C. or 40° C. for 10 days. […] In addition to chemical stability, a careful examination of the possible impact of methylene blue on the physical state of the LNP was performed using dynamic light scattering (DLS). This technique is exquisitely sensitive to tiny changes in hydrodynamic nanoparticle size, especially with respect to the formation of larger aggregates known to be a common physical degradation mode of many LNPs."}, "[5]": {"system": "mRNA encapsulated within LNPs", "assay": "mRNA-LNP stability with thionine or methylene blue, main peak purity by fragmentation analysis", "assay_type": "physicochemical", "conditions": "mRNA-LNP with incremental dye 0.01-1.5 mM, 3 weeks at room temperature and 40° C., relative to no dye", "text": "as §1\nA study was performed to compare the effects of thionine, a phenothiazinium dye that permeates LNPs, with methylene blue which permeates LNPs to a lesser extent. A series of mRNA-LNP samples were prepared containing incremental levels of each dye as detailed in Table 1. These samples were incubated under two temperature conditions of room temperature and 40 C for 3 weeks prior to analysis."}, "mRNA [6]": {"system": "mRNA", "assay": "DLS of methylene blue-mRNA interaction", "assay_type": "physicochemical", "conditions": "methylene blue concentrations in the 10 μM range; data not shown", "text": "The images in FIG. 22 show the effect of thionine on mRNA-LNPs. […] The significant protection against fragmentation and adduct formation conferred by the compounds disclosed herein may be based on this effect on nucleic acid conformational state."}, "mRNA [7]": {"molecular_target": "mRNA", "assay": "ITC of dye-mRNA interaction", "assay_type": "binding"}, "lyophilized mRNA-LNP": {"system": "lyophilized mRNA-LNP", "assay": "Stability of lyophilized mRNA-LNP with methylene blue (RP-HPLC)", "assay_type": "physicochemical", "conditions": "lyophilized mRNA-LNP powder with 1 mM methylene blue, 1 week at 40° C.", "method": "To evaluate whether methylene blue could have a stabilization effect on lyophilized powder formulations of mRNA-LNP, studies were performed to compare the effect of 1 mM methylene blue on loss of purity of a lyophilized mRNA-LNP. In this experiment methylene blue was added to LNP immediately prior to lyophilization. The resulting powders (shown in FIG. 15) were stored at −80° C., 5° C. or 40° C. with or without methylene blue."}}, "note": "Values joined by “and” are separate entries in the source; they are usually repeats but may differ in a detail not shown here. Identical values can stand only once. “Also recorded” adds a separate entry of the source.", "data": [{"smiles": "CN(C)c1ccc2nc3ccc(N(C)C)cc3[s+]c2c1", "note": "[methylene blue]", "values": [{"measurement": "Main Peak Purity after 4 days at 40° C. (%)", "setting": "[1]; 2 mM dye in mRNA-LNP, RP-HPLC, no value (—) = physically unstable, no reliable chromatographic result, interpreted as destabilizing", "value": "89.62% and 90.27% and 85.96%"}, {"measurement": "Mean (Main Peak Purity after 4 days at 40° C.)", "setting": "[1]; 2 mM dye, three independent sample replicates", "value": "89 ± 2", "unit": "%"}, {"measurement": "Difference relative to No Dye", "setting": "[1]; main peak purity, 2 mM dye, 4 days at 40° C., ±4% interpreted as significant", "value": 14, "unit": "%"}, {"measurement": "methylene blue concentration with appreciable impact to mRNA conformational stability (DSC)", "setting": "mRNA [2]", "value": "~10", "unit": "µM"}, {"measurement": "methylene blue concentration giving dramatic global changes in overall mRNA structure (DSC)", "setting": "mRNA [2]; 0.3 μM mRNA, 32.5 mM sodium acetate, pH 5.0", "value": "≥ 367.8", "unit": "µM"}, {"measurement": "folded stability of mRNA (DSC thermogram)", "setting": "mRNA [2]; 50 μM or 100 μM methylene blue vs no methylene blue", "value": "enormous enhancement of folded stability"}, {"measurement": "reversibility of methylene blue binding to mRNA (DSC after dialysis)", "setting": "mRNA [2]; 100 mM methylene blue, dialyzed to remove dye", "value": "reversible"}, {"measurement": "lowest methylene blue concentration affecting the folded structure of mRNA (DSC)", "setting": "mRNA [2]; mRNA at 0.3 μM", "value": 11.3, "unit": "µM"}, {"measurement": "methylene blue concentration at which precipitation of mRNA occurs", "setting": "mRNA [2]; mRNA in solution", "value": "approximately 0.5 mM"}, {"measurement": "intrinsic CD bands of mRNA", "setting": "mRNA [3]", "value": "significant perturbation in these bands"}, {"measurement": "mRNA stability by fragmentation analysis", "setting": "[4]; 5° C.", "value": "slight trend in the opposite direction"}, {"measurement": "methylene blue concentration range at which stabilizing effect reached a maximum", "setting": "[4]; 40° C., fragmentation analysis", "value": "1.5 to 3.0", "unit": "mM"}, {"measurement": "mRNA stability by fragmentation analysis", "setting": "[4]; room temperature", "value": "protective effect"}, {"measurement": "% main peak purity by fragmentation analysis (mRNA stability)", "setting": "[5]", "value": "stabilized it; also recorded: significantly improved mRNA stability relative to the no-dye control"}, {"measurement": "mRNA hydrodynamic radii (DLS)", "setting": "mRNA [6]", "value": "measurable decrease in mRNA hydrodynamic radii"}, {"measurement": "dissociation constant for the dye-mRNA interaction (ITC)", "setting": "mRNA [7]", "value": "μm dissociation constant"}, {"measurement": "main peak purity", "setting": "lyophilized mRNA-LNP", "value": "30% and 33%"}]}]}
